Values of other authors as cited in patent publication US4833152A, “Anti-hypertensive agents” (University of Miami, priority 1987, dated 1989).

Experiments:
[1] = 1 mg per ml, pH about 8, as little as 30 minutes, ambient conditions

C[C@H](CS)C(=O)N1CCCC1C(=O)O (stereo in doubt) [SQ14225, D-3-mercapto-2-methylpropanoyl-L-proline]
loss of activity of fresh aqueous solution on standing [1]: substantially less active upon standing for as little as 30 minutes
ACE inhibition, in words (ACE; U.S. Pat. No. 4,046,889, Cushman 1977, Ondetti 1977): highly effective inhibitor

CC(=O)SC[C@@H](C)C(=O)N1CCC[C@H]1C(=O)O [S-acetyl derivative]
potency of the inhibitor on substitution of the sulfhydryl (ACE; relative to free sulfhydryl SQ14225, Cushman et al., Biochemistry): substantially reduced potency of the inhibitor

C[C@H](CSSC[C@@H](C)C(=O)N1CCC[C@H]1C(=O)O)C(=O)N1CCC[C@H]1C(=O)O [disulfide]
inhibitory activity of the disulfide (ACE; disulfide formed by dimerization of SQ14225, believed): largely inactive as an inhibitor
